In general, solubility refers to how much of the substance goes into solution per volume. Read a high solubility as much dissolved substance.

Converted amounts (≈) assume the structure as drawn.

The values that follow come from the OPERA property sets (Mansouri et al. 2018).

Conditions in the first data set: not given
Consider `OC[C@H]1O[C@@H](n2cnc3cncnc32)[C@H](O)[C@@H]1O`, for which the solubility came out at 396 mM (≈ 100000 µg/mL).

Regarding `COc1cc(O)c(C(=O)c2ccccc2)cc1S(=O)(=O)O`, the solubility came to 811 mM (≈ 250000 µg/mL). Compared with the last molecule, the solubility is about 2-fold higher.

For the molecule `C=C1C=CC(=O)O1`, the solubility was 104 mM (≈ 10000 µg/mL).

Regarding `C#CC(C)(CC)OC(N)=O` (stereo not given), the solubility was determined as 113 mM (≈ 16000 µg/mL). This solubility and that of the molecule before are within 1.5-fold of each other.

Turning to `CCCCOC(=O)C=Cc1ccccc1`, the solubility is 24.5 mM (≈ 5000 µg/mL).

As to `O=C(NCN1CCOCC1)c1cnccn1`, the solubility turned out to be 1500 mM (≈ 333000 µg/mL).

`O=C(O)CCC(=O)OOC(=O)CCC(=O)O` returned a solubility of 142 mM (≈ 33300 µg/mL).

For `CCOCCOC(=O)C=Cc1ccc(OC)cc1`, the solubility was 2 mM (≈ 500 µg/mL).

Still in this data set, the particulars now being: 22 °C.
`CC(=O)NCc1c(I)c(NC(C)=O)c(I)c(C(=O)O)c1I`: the solubility was 4.78 mM (≈ 3000 µg/mL).

The data set is the same for the next values; noted with them: 25 °C.
`O=NN(CCCl)C(=O)NCCCl` yielded a solubility of 18.7 mM (≈ 4000 µg/mL).

On to `O=C(N/N=C/c1ccccc1O)c1ccncc1`, for which the solubility came out at 0.207 mM (≈ 50 µg/mL). Against the preceding molecule, the solubility is about 90-fold lower.

With `CC(C)(C)CC(=O)OCC(=O)[C@@]12OC(C)(C)O[C@@H]1C[C@H]1[C@@H]3CCC4=CC(=O)C=C[C@]4(C)[C@@]3(F)[C@@H](O)C[C@@]12C`, the solubility was found to be 0.00751 mM (≈ 4 µg/mL).

Take `Nc1ccc(S(=O)(=O)Nc2ccnn2-c2ccccc2)cc1`: the solubility was 4.77 mM (≈ 1500 µg/mL). This solubility lies about 640-fold higher than the previous one.

`O=Nc1c(O)ccc2ccccc12` registered a solubility of 5.77 mM (≈ 1000 µg/mL). The solubility values of the last two molecules are within 1.5-fold of each other.

On to `NCCNc1cccc2ccccc12`, for which the solubility worked out at 10.7 mM (≈ 2000 µg/mL).
